US12351570B2 (MERCK PATENT GMBH, priority 2018, dated 2025)

Tested on: MDA-MB-231 cells
Assay: Extracellular lactate production inhibition after 4 h, MDA-MB-231
Conditions: Homo sapiens, MDA-MB-231

Row | IC50 | SMILES
1 | 100 to 1000 nM | O=C(O)c1ccc(C#Cc2ccccc2NS(=O)(=O)c2ccc3c(c2)oc2ccccc23)cn1 [Compound 301, 5-[2-(2-{8-oxatricyclo[7.4.0.0^2,7]trideca-1(9),2(7),3,5,10,12-hexaene-5-sulfonamido}phenyl)ethynyl]pyridine-2-carboxylic acid]
2 | 1000 to 100000 nM | O=C(O)c1ccc(C#Cc2ccccc2NS(=O)(=O)N2CCc3cccnc32)cn1 [Compound 145, 5-{2-[2-({1H,2H,3H-pyrrolo[2,3-b]pyridine-1-sulfonyl}amino)phenyl]-ethynyl}pyridine-2-carboxylic acid]
3 | 1 to 10 nM | COc1ccc(S(=O)(=O)Nc2ccc(Cl)cc2C#Cc2ccc(C(=O)O)nc2)c2ncccc12 [Compound 359, 5-{2-[5-chloro-2-(5-methoxyquinoline-8-sulfonamido)phenyl]ethynyl}pyridine-2-carboxylic acid]
4 | 10 to 100 nM | COc1ccc(S(=O)(=O)Nc2ccccc2C#Cc2ccc(C(=O)OCc3ccccc3)nc2)c2ncccc12 [Compound 172, benzyl 5-{2-[2-(5-methoxyquinoline-8-sulfonamido)phenyl]ethynyl}pyridine-2-carboxylate]
5 | 100 to 1000 nM | O=C(O)c1ccc(C#Cc2cc(F)ccc2NS(=O)(=O)c2cccc3ccccc23)cc1 [Compound 68, 4-{2-[5-fluoro-2-(naphthalene-1-sulfonamido)phenyl]ethynyl}benzoic acid]
6 | 1000 to 100000 nM | COc1cccc(S(=O)(=O)Nc2ccccc2C#Cc2ccc(C(=O)O)nc2)c1 [Compound 12, 5-{2-[2-(3-methoxybenzenesulfonamido)phenyl]-ethynyl}pyridine-2-carboxylic acid]
7 | 100 to 1000 nM | O=C(O)c1ccc(C#Cc2cc(F)ccc2NS(=O)(=O)c2cccc3cccnc23)cn1 [Compound 111, 5-{2-[5-fluoro-2-(quinoline-8-sulfonamido)phenyl]ethynyl}pyridine-2-carboxylic acid]
8 | 100 to 1000 nM | Cn1c2ccccc2c2ccc(S(=O)(=O)Nc3ccccc3C#Cc3ccc(C(=O)O)nc3)cc21 [Compound 150, 5-{2-[2-(9-methyl-9H-carbazole-2-sulfonamido)phenyl]ethynyl}pyridine-2-carboxylic acid]
9 | 1 to 10 nM | COc1cc(C(=O)O)ncc1C#Cc1cc(Cl)ccc1NS(=O)(=O)c1ccc(OC)c(C)c1C [Compound 243, 5-{2-[5-chloro-2-(4-methoxy-2,3-dimethylbenzenesulfonamido)-phenyl]ethynyl}-4-methoxypyridine-2-carboxylic acid]
10 | 1000 to 100000 nM | COC(=O)c1ncc(C#Cc2cc(F)ccc2NS(=O)(=O)c2ccc(OC)c3cccnc23)cc1C [Compound 316, methyl 5-{2-[5-fluoro-2-(5-methoxyquinoline-8-sulfonamido)phenyl]ethynyl}-3-methylpyridine-2-carboxylate]
11 | 1 to 10 nM | COc1cc(C(=O)O)ncc1C#Cc1cc(Cl)ccc1NS(=O)(=O)c1c(C)ccc2cccnc12 [Compound 361, 5-{2-[5-chloro-2-(7-methylquinoline-8-sulfonamido)phenyl]ethynyl}-4-methoxypyridine-2-carboxylic acid]
12 | 10 to 100 nM | COC(=O)c1ccc(C#Cc2ccccc2NS(=O)(=O)c2ccc(OC)c3cccnc23)cn1 [Compound 129, methyl 5-{2-[2-(5-methoxyquinoline-8-sulfonamido)phenyl]ethynyl}pyridine-2-carboxylate]
13 | 1 to 10 nM | Cc1ccc2cccnc2c1S(=O)(=O)Nc1ccccc1C#Cc1ccc(C(=O)OCC(O)CO)nc1 (stereo not shown) [Compound 396, 2,3-dihydroxypropyl 5-{2-[2-(7-methylquinoline-8-sulfonamido)phenyl]ethynyl}pyridine-2-carboxylate]
14 | 1000 to 100000 nM | O=C(O)c1ccc(C#Cc2ccccc2NS(=O)(=O)/C=C/c2ccccc2)cn1 [Compound 326, 5-(2-{2-[(E)-2-phenylethenesulfon-amido]phenyl}ethynyl)pyridine-2-carboxylic acid]
15 | 100 to 1000 nM | COC(=O)c1cc(C)c(C#Cc2ccccc2NS(=O)(=O)c2c(C)ccc3cccnc23)cn1 [Compound 137, methyl 4-methyl-5-{2-[2-(7-methylquinoline-8-sulfonamido)phenyl]ethynyl}pyridine-2-carboxylate]
16 | 1000 to 100000 nM | O=C(O)c1ccc(C#Cc2ccccc2NS(=O)(=O)c2cccn3ccnc23)cn1 [Compound 278, 5-[2-(Imidazo[1,2-a]pyridine-8-sulfonyl-amino)-phenylethynyl]-pyridine-2-carboxylic acid]
17 | 100 to 1000 nM | O=C(O)c1ccc(C#Cc2ccccc2NS(=O)(=O)c2csc3ccccc23)cn1 [Compound 104, 5-{2-[2-(1-benzothiophene-3-sulfonamido)phenyl]ethynyl}pyridine-2-carboxylic acid]
18 | 10 to 100 nM | Cc1ccc2c(C)ccnc2c1S(=O)(=O)Nc1ccccc1C#Cc1ccc(C(=O)O)nc1 [Compound 310, 5-{2-[2-(4,7-dimethylquinoline-8-sulfonamido)phenyl]ethynyl}pyridine-2-carboxylic acid]
19 | 100 to 1000 nM | Cn1ccc2c(S(=O)(=O)Nc3ccccc3C#Cc3ccc(C(=O)O)nc3)cccc21 [Compound 303, 5-{2-[2-(1-methyl-1H-indole-4-sulfonamido)phenyl]ethynyl}pyridine-2-carboxylic acid]

Row | IC50 | SMILES
20 | 1000 to 100000 nM | Cc1cccc(C#Cc2ccc(C(=O)O)cc2)c1NS(=O)(=O)c1ccc2ccccc2c1 [Compound 64, 4-{2-[3-methyl-2-(naphthalene-2-sulfonamido)phenyl]ethynyl}benzoic acid]
21 | 100 to 1000 nM | O=CN(CCc1cccc2ccccc12)c1ccccc1C#Cc1ccc(C(=O)O)nc1 [Compound 200, 5-[2-(2-{N-[2-(naphthalen-1-yl)ethyl]-formamido}phenyl)ethynyl]pyridine-2-carboxylic acid]
22 | 100 to 1000 nM | O=C(O)c1ccc(C#Cc2ccc(F)cc2NS(=O)(=O)c2cccc3ccccc23)cn1 [Compound 285, 5-{2-[4-fluoro-2-(naphthalene-1-sulfonamido)phenyl]ethynyl}pyridine-2-carboxylic acid]
23 | 1 to 10 nM | Cc1ccc2cccnc2c1S(=O)(=O)Nc1ccc(Br)cc1C#Cc1ccc(C(=O)O)nc1 [Compound 340, 5-{2-[5-bromo-2-(7-methylquinoline-8-sulfonamido)phenyl]ethynyl}pyridine-2-carboxylic acid]
24 | 1000 to 100000 nM | Cc1ccccc1-c1cccc(S(=O)(=O)Nc2ccccc2C#Cc2ccc(C(=O)O)cc2)c1 [Compound 86, 4-[2-(2-{2′-methyl-[1,1′-biphenyl]-3-sulfonamido}phenyl)ethynyl]benzoic acid]
25 | 1000 to 100000 nM | COc1ccc(S(=O)(=O)Nc2ccc(F)cc2C#Cc2ccc(C(=O)NC#N)nc2)c2ccccc12 [Compound 256, N-cyano-5-{2-[5-fluoro-2-(4-methoxynaphthalene-1-sulfonamido)-phenyl]ethynyl}pyridine-2-carboxamide]
26 | 1000 to 100000 nM | CNc1ccnc2c(S(=O)(=O)Nc3ccccc3C#Cc3cnc(C(=O)O)cc3OC)cccc12 [Compound 419, 4-Methoxy-5-[2-(4-methylamino-quinoline-8-sulfonylamino)-phenylethynyl]-pyridine-2-carboxylic acid]
27 | 100 to 1000 nM | COc1ccc(S(=O)(=O)Nc2ccccc2C#Cc2ccc(C(=O)NC(C)C)nc2)c2ncccc12 [Compound 392, 5-[2-(5-Methoxy-quinoline-8-sulfonylamino)-phenylethynyl]-pyridine-2-carboxylic acid isopropylamide]
28 | 100 to 1000 nM | O=C(O)c1ccc(C#Cc2ccccc2NS(=O)(=O)c2ccccc2-c2ccccc2)cn1 [Compound 141, 5-[2-(2-{[1,1′-biphenyl]-2-sulfonamido}phenyl)ethynyl]pyridine-2-carboxylic acid]
29 | 1000 to 100000 nM | COc1ccc(S(=O)(=O)Nc2ccccc2C#Cc2cc(F)c(C(=O)O)c(F)c2)c2ccccc12 [Compound 27, 2,6-difluoro-4-{2-[2-(4-methoxynaphthalene-1-sulfonamido)phenyl]ethynyl}benzoic acid]
30 | 10 to 100 nM | CCc1cc(C#Cc2ccccc2NS(=O)(=O)c2ccc(OC)c3cccnc23)cnc1C(=O)O [Compound 451, 3-Ethyl-5-[2-(5-methoxy-quinoline-8-sulfonylamino)-phenylethynyl]-pyridine-2-carboxylic acid]
31 | 10 to 100 nM | CNc1cc(C#Cc2ccccc2NS(=O)(=O)c2ccc(OC)c(C)c2C)cnc1C(=O)O [Compound 378, 5-{2-[2-(4-methoxy-2,3-dimethyl-benzenesulfonamido)phenyl]ethynyl}-3-(methylamino)pyridine-2-carboxylic acid]
32 | 100 to 1000 nM | COc1cc(C#Cc2ccccc2NS(=O)(=O)c2c(C)ccc3cccnc23)cnc1C(=O)O [Compound 171, 3-methoxy-5-{2-[2-(7-methylquinoline-8-sulfonamido)phenyl]ethynyl}pyridine-2-carboxylic acid]
33 | 1 to 10 nM | COc1cc(C(=O)O)ncc1C#Cc1ccccc1NS(=O)(=O)c1c(C)ccc2cccnc12 [Compound 164, 4-methoxy-5-{2-[2-(7-methylquinoline-8-sulfonamido)phenyl]ethynyl}pyridine-2-carboxylic acid]
34 | 1000 to 100000 nM | Cc1ccc2cccnc2c1S(=O)(=O)Nc1ccccc1C#Cc1ccc(C(=O)OCCCCN(C)C)nc1 [Compound 407, 4-(dimethylamino)butyl 5-{2-[2-(7-methylquinoline-8-sulfonamido)phenyl]ethyny}pyridine-2-carboxylate]
35 | 1 to 10 nM | CCNc1cc(C#Cc2ccccc2NS(=O)(=O)c2cccc3cccnc23)cnc1C(=O)O [Compound 394, 3-(ethylamino)-5-{2-[2-(quinoline-8-sulfonamido)phenyl]ethynyl}pyridine-2-carboxylic acid]
36 | 10 to 100 nM | CNc1cc(C#Cc2cc(Cl)ccc2NS(=O)(=O)c2ccc(OC)c(C)c2C)cnc1C(=O)O [Compound 403, 5-{2-[5-chloro-2-(4-methoxy-2,3-dimethylbenzenesulfonamido)phenyl]ethynyl}-3-(methylamino)pyridine-2-carboxylic acid]
37 | 1000 to 100000 nM | CNC(=O)c1ccc(C#Cc2ccccc2NS(=O)(=O)c2ccc(OC)c3cccnc23)cn1 [Compound 156, 5-{2-[2-(5-methoxyquinoline-8-sulfonamido)phenyl]ethynyl}-N-methylpyridine-2-carboxamide]
